{"source": "paper PMC10590419", "about": "“Structural and mechanistic insights into the inhibition of respiratory syncytial virus polymerase by a non-nucleoside inhibitor” (Communications Biology, 2023)", "key": {"[1]": {"system": "rgRSV224 (RSV A2 reporter virus)", "assay": "Inhibition of rgRSV224 reporter RSV in HeLa cells (GFP)", "conditions": "human respiratory syncytial virus, 72 h, read-out: Median EC50"}, "[2]": {"molecular_target": "human mitochondrial RNA polymerase (POLRMT) (Homo sapiens, UniProt O00411)", "sequence (O00411 42-1230)": "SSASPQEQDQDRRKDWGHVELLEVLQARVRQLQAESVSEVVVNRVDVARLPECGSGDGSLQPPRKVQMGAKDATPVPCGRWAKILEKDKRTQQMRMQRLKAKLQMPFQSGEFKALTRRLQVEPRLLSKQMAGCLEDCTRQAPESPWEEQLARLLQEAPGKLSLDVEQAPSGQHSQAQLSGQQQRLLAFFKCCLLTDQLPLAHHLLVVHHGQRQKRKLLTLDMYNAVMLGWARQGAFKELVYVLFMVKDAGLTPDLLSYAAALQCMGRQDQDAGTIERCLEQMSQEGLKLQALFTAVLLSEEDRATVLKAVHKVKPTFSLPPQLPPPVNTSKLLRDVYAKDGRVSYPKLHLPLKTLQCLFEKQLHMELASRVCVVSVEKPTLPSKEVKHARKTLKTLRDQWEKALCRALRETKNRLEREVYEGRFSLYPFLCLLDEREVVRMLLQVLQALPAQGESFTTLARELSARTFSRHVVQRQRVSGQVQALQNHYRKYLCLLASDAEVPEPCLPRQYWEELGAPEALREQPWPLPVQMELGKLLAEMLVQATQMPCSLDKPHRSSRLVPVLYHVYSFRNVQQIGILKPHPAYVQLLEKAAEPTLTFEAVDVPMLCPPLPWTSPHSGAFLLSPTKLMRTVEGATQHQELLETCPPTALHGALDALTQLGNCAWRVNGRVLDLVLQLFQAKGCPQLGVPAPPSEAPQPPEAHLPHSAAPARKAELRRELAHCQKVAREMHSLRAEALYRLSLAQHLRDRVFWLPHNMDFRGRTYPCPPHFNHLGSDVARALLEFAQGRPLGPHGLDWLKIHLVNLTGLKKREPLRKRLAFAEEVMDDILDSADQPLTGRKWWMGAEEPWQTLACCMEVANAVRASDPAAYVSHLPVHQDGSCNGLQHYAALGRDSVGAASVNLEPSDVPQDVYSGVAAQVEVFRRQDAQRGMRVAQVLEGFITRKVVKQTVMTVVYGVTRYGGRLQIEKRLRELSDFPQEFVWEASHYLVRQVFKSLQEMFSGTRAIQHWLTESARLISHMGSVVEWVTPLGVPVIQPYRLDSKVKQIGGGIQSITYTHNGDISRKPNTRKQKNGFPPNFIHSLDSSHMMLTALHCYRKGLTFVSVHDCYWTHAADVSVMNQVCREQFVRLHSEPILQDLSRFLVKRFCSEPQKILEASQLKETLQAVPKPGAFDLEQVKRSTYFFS", "assay": "Mitochondrial RNA polymerase DdRp activity", "format": "biochemical", "description": "to the method described previously 1. A 25 nM solution of RSV MTase-CTD protein or RSV L+P complex was incubated with 0.7 µM or 1.8 µM purified synthetic RNA 5’-Gppp […]\n[…] (RSV9) for the MTase-CTD or L+P complex, respectively; 2 µM or 0.17 µM S-adenosyl methionine (SAM) for the MTase-CTD or L–P complex, respectively; and 0.1 µM or 0.8 µM 3H-SAM (Perkin Elmer) for the MTase-CTD or L–P complex, respectively; in 50 mM Tris-HCl pH 8.0. Compounds, previously dissolved in DMSO were added at a final concentration of 50 µM or 200 µM. After 3 h incubation at 30°C, reactions were quenched by a 20-fold dilution in ice cold water. […] They were then soaked with scintillation fluid (Perkin Elmer), and 3H-methyl transfer to the RNA substrates was determined using a Wallac MicroBeta TriLux Liquid Scintillation Counter. […]\nHuman DNA polymerases alpha (CHIMERx) at 5 U/ml, beta (CHIMERx) at 0.5 U/ml and gamma (Abcam) at 0.1 mg/ml were incubated with the tested inhibitors at specified concentrations, and a reaction mix composed of 62 µg/ml activated calf thymus DNA, dGTP (2 µM), dATP (2 µM), dCTP (2 µM), [ 3H]dTTP (0.05 µCi/µl), 0.1 mg/ml BSA and a buffer composed of Tris-HCl pH 8 (50 mM), MgCl 2 (5 mM), KCl (60 mM), and DTT (4 mM.) in a total volume of 50 µl. […] Radioactivity was measured via liquid scintillation counting (MicroScint-20, 40µl) on a TriLux apparatus. […]"}, "RSV L+P complex": {"molecular_target": "RSV L+P complex (Human respiratory syncytial virus A, UniProt P28887)", "sequence (P03421 whole entry)": "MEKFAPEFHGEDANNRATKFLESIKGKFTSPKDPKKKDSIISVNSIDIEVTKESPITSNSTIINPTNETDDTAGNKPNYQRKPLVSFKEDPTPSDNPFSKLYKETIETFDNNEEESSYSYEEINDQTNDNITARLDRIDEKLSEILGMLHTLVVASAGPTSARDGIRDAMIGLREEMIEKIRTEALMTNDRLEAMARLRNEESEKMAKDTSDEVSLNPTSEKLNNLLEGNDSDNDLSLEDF", "sequence (P28887 whole entry)": "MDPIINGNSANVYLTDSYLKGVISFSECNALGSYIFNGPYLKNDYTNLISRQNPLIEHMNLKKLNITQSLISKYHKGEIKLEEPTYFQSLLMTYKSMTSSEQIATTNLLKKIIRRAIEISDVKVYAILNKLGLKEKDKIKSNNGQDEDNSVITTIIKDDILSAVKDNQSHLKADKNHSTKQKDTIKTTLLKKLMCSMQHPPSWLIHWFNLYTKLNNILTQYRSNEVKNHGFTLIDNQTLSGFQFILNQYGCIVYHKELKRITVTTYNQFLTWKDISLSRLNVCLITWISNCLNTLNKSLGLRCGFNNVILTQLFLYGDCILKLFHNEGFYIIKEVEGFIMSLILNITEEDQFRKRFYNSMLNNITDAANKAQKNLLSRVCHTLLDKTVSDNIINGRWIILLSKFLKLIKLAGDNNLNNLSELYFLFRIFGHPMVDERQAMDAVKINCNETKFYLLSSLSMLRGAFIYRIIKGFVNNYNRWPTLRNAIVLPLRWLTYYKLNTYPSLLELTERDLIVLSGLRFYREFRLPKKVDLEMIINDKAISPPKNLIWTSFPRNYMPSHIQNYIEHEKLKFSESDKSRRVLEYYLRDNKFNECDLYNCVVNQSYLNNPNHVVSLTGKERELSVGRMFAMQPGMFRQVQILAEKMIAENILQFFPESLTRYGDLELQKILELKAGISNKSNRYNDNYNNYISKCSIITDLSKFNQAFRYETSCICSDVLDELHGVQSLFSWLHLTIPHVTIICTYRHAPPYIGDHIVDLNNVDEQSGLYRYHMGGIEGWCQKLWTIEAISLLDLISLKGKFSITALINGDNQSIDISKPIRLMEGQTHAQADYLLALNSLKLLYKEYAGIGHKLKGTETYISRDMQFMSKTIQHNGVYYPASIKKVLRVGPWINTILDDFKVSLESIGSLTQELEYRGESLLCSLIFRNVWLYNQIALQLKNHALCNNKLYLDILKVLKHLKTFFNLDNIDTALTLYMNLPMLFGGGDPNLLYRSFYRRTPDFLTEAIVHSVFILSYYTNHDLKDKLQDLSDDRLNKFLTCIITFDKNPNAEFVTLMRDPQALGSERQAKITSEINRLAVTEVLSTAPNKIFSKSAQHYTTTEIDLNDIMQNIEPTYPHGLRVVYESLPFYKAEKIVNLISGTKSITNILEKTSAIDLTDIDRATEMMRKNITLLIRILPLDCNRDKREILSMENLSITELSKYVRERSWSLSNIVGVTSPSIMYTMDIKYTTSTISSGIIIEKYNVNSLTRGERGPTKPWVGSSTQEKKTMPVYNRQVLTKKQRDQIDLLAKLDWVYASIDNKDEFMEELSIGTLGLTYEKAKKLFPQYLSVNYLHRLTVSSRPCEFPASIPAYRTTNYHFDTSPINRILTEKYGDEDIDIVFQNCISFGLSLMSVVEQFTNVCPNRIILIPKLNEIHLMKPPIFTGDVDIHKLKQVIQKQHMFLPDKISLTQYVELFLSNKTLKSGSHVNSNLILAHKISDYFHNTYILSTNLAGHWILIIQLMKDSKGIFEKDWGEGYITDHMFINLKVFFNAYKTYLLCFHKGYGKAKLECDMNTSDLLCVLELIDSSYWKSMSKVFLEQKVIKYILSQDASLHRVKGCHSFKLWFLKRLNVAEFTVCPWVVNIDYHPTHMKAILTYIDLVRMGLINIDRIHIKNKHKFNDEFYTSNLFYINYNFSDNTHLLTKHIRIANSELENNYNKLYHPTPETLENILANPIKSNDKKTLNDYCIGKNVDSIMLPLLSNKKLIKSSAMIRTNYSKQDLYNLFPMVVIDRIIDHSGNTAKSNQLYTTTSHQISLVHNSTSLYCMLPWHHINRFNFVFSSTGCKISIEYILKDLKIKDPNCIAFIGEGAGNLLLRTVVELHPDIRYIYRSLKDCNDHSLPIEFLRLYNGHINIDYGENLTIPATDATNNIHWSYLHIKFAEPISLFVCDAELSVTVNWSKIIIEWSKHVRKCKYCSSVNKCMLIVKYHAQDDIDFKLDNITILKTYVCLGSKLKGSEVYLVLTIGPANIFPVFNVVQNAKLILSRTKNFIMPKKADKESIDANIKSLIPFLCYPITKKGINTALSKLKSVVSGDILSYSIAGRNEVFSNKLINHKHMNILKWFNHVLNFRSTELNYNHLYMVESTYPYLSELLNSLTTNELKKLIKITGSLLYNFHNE", "format": "biochemical", "conditions": "for MTase activity, RNA+compound+RSV L+P, CPM: three technical replicates"}}, "note": "Several values for one entry are separate records, joined by “and”; a condition that tells them apart may be missing. Identical values can stand only once. Like-named read-outs stand apart in the source and are kept apart here.", "data": [{"smiles": "COc1cc(C(=O)NC[C@](O)(c2cc(C(C)(C)O)c(F)c(-c3ccc(F)cc3)n2)C(F)(F)F)cc2cc(C)nnc12", "note": "[JNJ-8003]", "values": [{"measurement": "EC50", "setting": "[1]", "value": 0.78, "unit": "nM"}, {"measurement": "IC50", "setting": "[2]", "value": "> 100000", "unit": "nM"}, {"measurement": "MTase activity, RNA+compound+RSV L+P, CPM", "setting": "RSV L+P complex; 50 uM", "value": "23422 CPM and 23466 CPM and 23927 CPM"}, {"measurement": "MTase activity, RNA+compound+RSV L+P, CPM", "setting": "RSV L+P complex; 200 uM", "value": "14871 CPM and 15721 CPM and 15503 CPM"}, {"measurement": "impact on MTase activity (in words)", "setting": "RSV L+P complex; full-length RSV L+P", "value": "no impact"}]}]}
